According to patent US8389523B2, “Substituted quinoxaline and an agrochemical composition thereof” (Kumiai Chemical Industry Co., Ltd., priority 2007, dated 2013):

Assays:
Format in all cases: in vivo
Design in all cases: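 grade 0 to 5 of growth suppression where 5 is 90% or more and 0 below 10%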
[1] = tested on: Echinochloa oryzicola Vasing; experiment: Herbicidal effects in paddy field soil treatment (Test Example 1); conditions: paddy field soil treatment; 1000 g of the active ingredient per hectare; wettable powder added dropwise on water surface; 21st day after treatment
Outline: (§1)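 Application rate was 1000 g active ingredient per hectare, delivered as a diluted wettable powder onto the surface of 3 cm flood water, the day after seeds were sown in paddy soil. Effects were rated 21 days later.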

[2] = tested on: Monochoria vaginalis (Burm. f.) Presl var. plantaginea (Roxb.) Solms-Laub.; experiment: as above; conditions: paddy field soil treatment; 1000 g of the active ingredient per hectare; wettable powder added dropwise on water surface; 21st day after treatment
Outline: as §1

[3] = tested on: Scirpus juncoides Roxb. var. ohwianus. T. Koyama; experiment: as above; conditions: paddy field soil treatment; 1000 g of the active ingredient per hectare; wettable powder added dropwise on water surface; 21st day after treatment
Outline: as §1

[4] = tested on: Abutilon theophrasti medicus; experiment: Herbicidal effects in upland field soil treatment (Test Example 2); conditions: 1000 g active ingredient per hectare, 21st day after treatment, criteria of Table 138
Method: (§2) Test Example 2 Test on Herbicidal Effects in Upland Field Soil Treatment A 80-cm^2 plastic pot was filled with upland field soil. Seeds of Abutilon theophrasti medicus and Amaranthus viridis L. were sowed, and soil was covered. A wettable powder formulation prepared according to Preparation Example 1 was diluted with water, and was uniformly sprayed on the soil surface with a small sprayer, in an amount equivalent to 1000 liters per hectare, such that 1000 g of the active ingredient per hectare was applied. Thereafter, the plants were grown in a greenhouse, and on the 21st day after the treatment, the herbicidal effects were investigated according to the criteria described in the Table 138 shown above.

[5] = tested on: Amaranthus viridis L.; experiment: as above; conditions: 1000 g active ingredient per hectare, 21st day after treatment, criteria of Table 138
Method: as §2

[6] = tested on: Abutilon theophrasti medicus; experiment: Herbicidal effects in upland field foliar treatment (Test Example 3); conditions: criteria of Table 138; for herbicidal effect (index) on Abutilon theophrasti medicus: 1000 g active ingredient per hectare, 14th day after treatment; for herbicidal effects on Abutilon theophrasti medicus: 1000 g of the active ingredient per hectare, 14th day after the treatment, wettable powder
Method: (§3) Test Example 3 Test on Herbicidal Effects in Upland Field Foliar Treatment A 80-cm^2 plastic pot was filled with upland field soil. Seeds of Echinochloa crus-galli (L.) P. Beauv. var. crus-galli, Abutilon theophrasti medicus and Amaranthus viridis L. were sowed, and the plants were grown for two weeks in a greenhouse. A wettable powder formulation prepared according to Preparation Example 1 was diluted with water, and was sprayed with a small sprayer to perform foliar application over the entirety of plants from the upper side, in an amount equivalent to 1000 liters per hectare, such that 1000 g of the active ingredient per hectare was applied. Thereafter, the plants were grown in a greenhouse, and on the 14th day after the treatment, the herbicidal effects were investigated according to the criteria described in the Table 138 shown above.

[7] = tested on: Amaranthus viridis L.; experiment: as above; conditions: criteria of Table 138; for herbicidal effect (index) on Amaranthus viridis L.: 1000 g active ingredient per hectare, 14th day after treatment; for herbicidal effects on Amaranthus viridis L.: 1000 g of the active ingredient per hectare, 14th day after the treatment, wettable powder
Method: as §3

[8] = tested on: Echinochloa crus-galli (L.) P. Beauv. var. crus-galli; experiment: as above; conditions: criteria of Table 138; for herbicidal effect (index) on Echinochloa crus-galli (L.) P. Beauv. var. crus-galli: 1000 g active ingredient per hectare, 14th day after treatment; for herbicidal effects on Echinochloa crus-galli (L.) P. Beauv. var. crus-galli: 1000 g of the active ingredient per hectare, 14th day after the treatment, wettable powder
Method: as §3

## CCn1c(=O)c(C(=O)C2=C(O)CCCC2=O)nc2ccccc21 [Compound I-7]
[1]
  Herbicidal effects index, Echinochloa oryzicola Vasing: 5
[2]
  Herbicidal effects index, Monochoria vaginalis (Burm. f.) Presl var. plantaginea (Roxb.) Solms-Laub.: 5
[3]
  Herbicidal effects index, Scirpus juncoides Roxb. var. ohwianus. T. Koyama: 5
[4]
  herbicidal effect (index) on Abutilon theophrasti medicus: 5
[5]
  herbicidal effect (index) on Amaranthus viridis L.: 5
[6]
  herbicidal effect (index) on Abutilon theophrasti medicus: 5
[7]
  herbicidal effect (index) on Amaranthus viridis L.: 5
[8]
  herbicidal effect (index) on Echinochloa crus-galli (L.) P. Beauv. var. crus-galli: 4

## Cn1c(=O)c(C(=O)C2=C(O)C3CCC(C3)C2=O)nc2ccccc21 (stereo not drawn) [I-5]
[4]
  herbicidal effect (index) on Abutilon theophrasti medicus: 5
[5]
  herbicidal effect (index) on Amaranthus viridis L.: 5
[6]
  herbicidal effect (index) on Abutilon theophrasti medicus: 5
[7]
  herbicidal effect (index) on Amaranthus viridis L.: 5
[8]
  herbicidal effect (index) on Echinochloa crus-galli (L.) P. Beauv. var. crus-galli: 4

## O=C1CCCC(O)=C1C(=O)c1nc2ccccc2n(C2CCCC2)c1=O [I-21]
[4]
  herbicidal effect (index) on Abutilon theophrasti medicus: 5
[5]
  herbicidal effect (index) on Amaranthus viridis L.: 5
[6]
  herbicidal effect (index) on Abutilon theophrasti medicus: 5
[7]
  herbicidal effect (index) on Amaranthus viridis L.: 5
[8]
  herbicidal effect (index) on Echinochloa crus-galli (L.) P. Beauv. var. crus-galli: 5

## CSCn1c(=O)c(C(=O)C2=C(O)C3CCC(C3)C2=O)nc2ccccc21 (stereo not drawn) [I-71]
[4]
  herbicidal effect (index) on Abutilon theophrasti medicus: 5
[5]
  herbicidal effect (index) on Amaranthus viridis L.: 5
[6]
  herbicidal effect (index) on Abutilon theophrasti medicus: 5
[7]
  herbicidal effect (index) on Amaranthus viridis L.: 5
[8]
  herbicidal effect (index) on Echinochloa crus-galli (L.) P. Beauv. var. crus-galli: 5

## O=C1CCCC(O)=C1C(=O)c1nc2ccccc2n(-c2ncccn2)c1=O [I-195]
[4]
  herbicidal effect (index) on Abutilon theophrasti medicus: 5
[5]
  herbicidal effect (index) on Amaranthus viridis L.: 5
[6]
  herbicidal effect (index) on Abutilon theophrasti medicus: 5
[7]
  herbicidal effect (index) on Amaranthus viridis L.: 5
[8]
  herbicidal effect (index) on Echinochloa crus-galli (L.) P. Beauv. var. crus-galli: 5

## COc1cc(-n2c(=O)c(C(=O)C3=C(O)CCCC3=O)nc3c(F)cccc32)cc(OC)c1OC [II-234]
[4]
  herbicidal effect (index) on Abutilon theophrasti medicus: 5
[5]
  herbicidal effect (index) on Amaranthus viridis L.: 5
[6]
  herbicidal effects on Abutilon theophrasti medicus: 5
[7]
  herbicidal effects on Amaranthus viridis L.: 5
[8]
  herbicidal effects on Echinochloa crus-galli (L.) P. Beauv. var. crus-galli: 4

## COc1ccc2nc(C(=O)C3=C(O)CCCC3=O)c(=O)n(-c3cc(F)c(OC)c(F)c3)c2c1 [II-255]
[1]
  Herbicidal effects index, Echinochloa oryzicola Vasing: 5
[2]
  Herbicidal effects index, Monochoria vaginalis (Burm. f.) Presl var. plantaginea (Roxb.) Solms-Laub.: 5
[3]
  Herbicidal effects index, Scirpus juncoides Roxb. var. ohwianus. T. Koyama: 5
[6]
  herbicidal effects on Abutilon theophrasti medicus: 4
[7]
  herbicidal effects on Amaranthus viridis L.: 5
[8]
  herbicidal effects on Echinochloa crus-galli (L.) P. Beauv. var. crus-galli: 5

## COc1cccc2nc(C(=O)C3=C(O)CCCC3=O)c(=O)n(-c3ccccc3)c12 [II-256]
[1]
  Herbicidal effects index, Echinochloa oryzicola Vasing: 5
[2]
  Herbicidal effects index, Monochoria vaginalis (Burm. f.) Presl var. plantaginea (Roxb.) Solms-Laub.: 5
[3]
  Herbicidal effects index, Scirpus juncoides Roxb. var. ohwianus. T. Koyama: 5
[6]
  herbicidal effects on Abutilon theophrasti medicus: 4
[7]
  herbicidal effects on Amaranthus viridis L.: 5
[8]
  herbicidal effects on Echinochloa crus-galli (L.) P. Beauv. var. crus-galli: 5

## COc1ccc(-n2c(=O)c(C(=O)C3=C(O)CCCC3=O)nc3cccc(OC)c32)cc1 [II-257]
[1]
  Herbicidal effects index, Echinochloa oryzicola Vasing: 5
[2]
  Herbicidal effects index, Monochoria vaginalis (Burm. f.) Presl var. plantaginea (Roxb.) Solms-Laub.: 5
[3]
  Herbicidal effects index, Scirpus juncoides Roxb. var. ohwianus. T. Koyama: 5
[6]
  herbicidal effects on Abutilon theophrasti medicus: 4
[7]
  herbicidal effects on Amaranthus viridis L.: 5
[8]
  herbicidal effects on Echinochloa crus-galli (L.) P. Beauv. var. crus-galli: 5

## O=C1CCCC(O)=C1C(=O)c1nc2cccnc2n(CCc2ccccc2)c1=O [III-235]
[1]
  Herbicidal effects index, Echinochloa oryzicola Vasing: 5
[2]
  Herbicidal effects index, Monochoria vaginalis (Burm. f.) Presl var. plantaginea (Roxb.) Solms-Laub.: 5
[3]
  Herbicidal effects index, Scirpus juncoides Roxb. var. ohwianus. T. Koyama: 5
[6]
  herbicidal effects on Abutilon theophrasti medicus: 5
[7]
  herbicidal effects on Amaranthus viridis L.: 5
[8]
  herbicidal effects on Echinochloa crus-galli (L.) P. Beauv. var. crus-galli: 5
